Measured values from paper PMC9681730, “DeepPROTACs is a deep learning-based targeted degradation predictor for PROTACs” (Nature Communications, 2022).

Assays:
[1] = target: T1, ERα-LBD (estrogen receptor, ER) (Homo sapiens, UniProt P03372); experiment: ITC (reverse titration, purified ERα-LBD); assay type: binding
T1 construct: gene ESR1; ERα-LBD (aa 298–554)
T1 sequence (P03372 298-554): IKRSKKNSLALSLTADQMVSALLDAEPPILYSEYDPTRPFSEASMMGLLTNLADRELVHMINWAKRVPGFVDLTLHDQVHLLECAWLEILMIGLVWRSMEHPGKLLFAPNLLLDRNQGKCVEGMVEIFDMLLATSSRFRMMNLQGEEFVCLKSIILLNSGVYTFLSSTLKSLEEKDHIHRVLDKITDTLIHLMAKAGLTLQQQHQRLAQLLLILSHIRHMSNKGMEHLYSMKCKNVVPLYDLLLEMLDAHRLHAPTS

VHL = target: T2, VHL (Homo sapiens, UniProt P40337); experiment: ITC (reverse titration, purified VCB complex); assay type: binding
T2 construct: VHL (aa 54-213) in His-tagged VCB complex with EloB (aa 1-104) and EloC (aa 1-112); with EloB and EloC (VCB complex)
T2 sequence (P40337 54-213): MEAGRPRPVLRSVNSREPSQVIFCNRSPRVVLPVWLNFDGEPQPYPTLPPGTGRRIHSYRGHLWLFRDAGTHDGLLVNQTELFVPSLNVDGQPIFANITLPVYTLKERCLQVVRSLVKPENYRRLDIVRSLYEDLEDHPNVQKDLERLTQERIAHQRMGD
T2 sequence (Q15370 1-104 partner): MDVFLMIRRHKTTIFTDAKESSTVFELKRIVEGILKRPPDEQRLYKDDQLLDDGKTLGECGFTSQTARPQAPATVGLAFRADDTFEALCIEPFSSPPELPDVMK
T2 sequence (Q15369 whole entry partner, the tested form may be a part): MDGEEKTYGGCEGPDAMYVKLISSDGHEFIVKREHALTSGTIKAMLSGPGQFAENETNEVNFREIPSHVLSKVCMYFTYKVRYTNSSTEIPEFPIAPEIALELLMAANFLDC

Kd [1]: 2140 nM | Kd (VHL): 4.37 µM
SMILES: Cc1ncsc1-c1ccc(CNC(=O)[C@@H]2C[C@@H](O)CN2C(=O)[C@@H](NC(=O)CCCCCCCCCC(=O)NCCOc2ccc(C(=C(CCCl)c3ccccc3)c3ccc(O)cc3)cc2)C(C)(C)C)cc1 [PROTAC 8]
